# Measurements as given in patent publication US9314458B2, “Topical use of ingenol-3-angelate or a salt thereof to treat skin cancer” (LEO Laboratories Limited, priority 2000, dated 2016).
# Tests used:
# HIV-strain pNL4-3 = test: HIV-1 replication in acutely infected PBMC (CA-p24 ELISA); type: cell-based; conditions: 2.8 nM
# Method: Experiments were conducted to assess the effect of the compounds of the instant invention on HIV-1 replication in acutely infected T cells. Peripheral blood mononuclear cells (PBMC) were obtained from non-HIV-1, non-HIV-2, non-Hepatitis B/C infected donors, stimulated with phytohemagglutinin-M and grown in culture media supplemented with 10 U/mL interleukin-2. The activated PBMC were infected with […] (Low Titre) and 100 ng (High Titre) of CA-p24 equivalents of the HIV-strain pNL4-3. Cells were infected for two hr after which, the virus was removed and the cells were washed with culture media. Equivalent numbers of cells were seeded into 24 well plates and compounds were added to the cultured cells that included: TPA at 8 nM and 80 nM, Ingenol at 280 nM, PEP003 at 500 nM, 50 nM and 5 nM, or PEP004 at dilutions of 1×10^4 and 1×10^5 from the stock (final concentrations). In addition, uninfected activated PBMC were grown in the presence of TPA (80 nM), Ingenol (280 nM), PEP003 (500 nM) and PEP004 (1×10^4 dilution). Other cultures were neither infected nor treated with any compound, or infected but not treated with any compound. Supernatant was removed from each culture at day 0, 3, 7, and 10. The amount of HIV-1 CA-p24 was determined using a commercially available ELISA assay. Three independent experiments were performed.
# PKCα = target: T1, PKCα (Homo sapiens, UniProt P17252); type: cell-based; conditions: HeLa, one hour; TPA 100 ng/mL, bryostatin-1 5 pg/mL, PEP003 2.25 μg/mL (5 μM)
# T1 construct: host or cells: HeLa cells
# Method: (§1) Five EGFP-PKC isoforms (Clontech) were available for this experiment, enabling the screening of the three predominant PKC families (i.e. classical, novel and atypical PKCs). The members of the various PKC families are α, β, and γ (classical), θ (novel) and ζ (atypical).
# (§2) HeLa cells were plated out in a 24-well plate containing coverslips and transfected with PKC isoforms fused to EGFP, using a commercially available effectine-transfection kit (QIAGEN, Pty. Ltd.). Cells were exposed to the transfection reagents for 16-24 hr. Subsequently, transfected cells were treated for one hour with TPA (100 ng/mL), bryostatin-1 (5 pg/mL), PEP003 (2.25 μg/mL; 5 μM) or PEP005 ([…]) 1.5 μM). Following treatment, cells were fixed on coverslips and mounted on glass slides. The slides were subsequently examined visually by fluorescence microscopy, photographed, and over 150 cells were counted/treatment/PKC isoform. Counted cells were classified according to the localisation of the PKC-EGFP fluorescence as either cytoplasmic or plasma membrane using ImagePro™ 4.1 (FIG. 5). […] The number of these cells was also counted.
# PKCγ = target: T2, PKCγ (Homo sapiens, UniProt P05129); test: EGFP-PKC translocation in HeLa cells (PKCγ); type: cell-based; conditions: one hour, TPA 100 ng/mL, bryostatin-1 5 pg/mL, PEP003 2.25 μg/mL (5 μM), PEP005 670 μg/mL (1.5 μM)
# T2 construct: host or cells: HeLa cells
# Method: as §1
# as §2, with “counted. Results are presented as an average and standard deviation of percentages of cells (Table 1).” for “counted.”
# PKCβ = target: T3, PKCβ (Homo sapiens, UniProt P05771); test: EGFP-PKC translocation in HeLa cells (PKCβ); type: cell-based; conditions: one hour
# T3 construct: host or cells: HeLa cells
# T3 sequence (P05771 whole entry, species assumed): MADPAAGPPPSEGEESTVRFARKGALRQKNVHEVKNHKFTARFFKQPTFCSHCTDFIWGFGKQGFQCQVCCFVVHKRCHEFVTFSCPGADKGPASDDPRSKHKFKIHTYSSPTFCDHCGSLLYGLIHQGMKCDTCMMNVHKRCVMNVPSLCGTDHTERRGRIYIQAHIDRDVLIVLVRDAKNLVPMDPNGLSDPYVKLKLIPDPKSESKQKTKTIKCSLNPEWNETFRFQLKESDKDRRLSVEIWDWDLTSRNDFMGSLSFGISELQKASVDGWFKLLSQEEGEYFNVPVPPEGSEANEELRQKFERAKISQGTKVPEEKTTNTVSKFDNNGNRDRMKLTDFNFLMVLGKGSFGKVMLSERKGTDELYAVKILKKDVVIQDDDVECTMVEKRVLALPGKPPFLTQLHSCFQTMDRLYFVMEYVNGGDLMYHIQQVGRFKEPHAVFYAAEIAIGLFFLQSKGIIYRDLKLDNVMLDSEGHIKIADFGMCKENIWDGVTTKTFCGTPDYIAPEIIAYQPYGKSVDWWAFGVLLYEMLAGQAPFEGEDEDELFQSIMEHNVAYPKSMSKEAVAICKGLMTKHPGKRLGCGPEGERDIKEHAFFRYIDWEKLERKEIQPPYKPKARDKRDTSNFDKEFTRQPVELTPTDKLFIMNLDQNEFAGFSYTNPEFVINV
# Method: as §1
# as §2, with “counted. Results are presented as an average and standard deviation of percentages of cells (Table 1).” for “counted.”
# PKCζ = target: T4, PKCζ (Homo sapiens, UniProt Q05513); test: EGFP-PKC translocation in HeLa cells (PKCζ); type: cell-based; conditions: one hour, same concentrations
# T4 construct: host or cells: HeLa cells
# T4 sequence (Q05513 1-592): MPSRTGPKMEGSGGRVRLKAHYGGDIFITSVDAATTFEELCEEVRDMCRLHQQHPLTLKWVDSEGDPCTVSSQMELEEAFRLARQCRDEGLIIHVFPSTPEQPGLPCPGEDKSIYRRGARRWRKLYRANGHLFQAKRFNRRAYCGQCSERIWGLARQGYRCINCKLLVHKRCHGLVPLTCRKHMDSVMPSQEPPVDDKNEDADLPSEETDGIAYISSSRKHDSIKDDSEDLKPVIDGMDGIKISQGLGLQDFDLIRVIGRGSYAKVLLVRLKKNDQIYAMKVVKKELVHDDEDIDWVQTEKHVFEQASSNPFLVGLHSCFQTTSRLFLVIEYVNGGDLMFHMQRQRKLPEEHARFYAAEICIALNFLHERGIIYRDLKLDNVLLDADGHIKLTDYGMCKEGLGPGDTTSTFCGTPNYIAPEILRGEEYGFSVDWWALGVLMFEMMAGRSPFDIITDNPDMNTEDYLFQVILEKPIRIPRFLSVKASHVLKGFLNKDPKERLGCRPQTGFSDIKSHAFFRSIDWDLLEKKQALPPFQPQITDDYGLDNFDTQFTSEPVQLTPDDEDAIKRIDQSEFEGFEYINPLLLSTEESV
# Method: as §1
# as §2, with “counted. Results are presented as an average and standard deviation of percentages of cells (Table 1).” for “counted.”
# [1] = tested on: peripheral blood mononuclear cells; test: Phagocytosis with fluorescent beads; type: cell-based; conditions: 30 min, whole heparinized blood
# Method: Phagocytosis by peripheral blood mononuclear cells (PBMCs) was assayed (Steinkamp et al., 1982) using 1 μm Fluoresbrite™ yellow-green fluorescent latex spheres (Polysciences, Inc., Warrington, Pa.). A sample of whole, heparinized blood was treated with drug and 5×10E7 fluorescent latex beads in 10 μL of PBS added per mL of suspension. Cells were incubated and maintained in suspension for 30 min by means of a shaker platform at 37° C. The stimulated and non-stimulated samples were then lysed to isolate PBMCs. The PBMCs were run on the flow cytometer measuring FITC (excitation at 488 nm, emission at 525±20 nm), gated for fluorescence (phagocytosed spheres) and light scatter (cell size).
# PKCθ = target: T5, PKCθ (Homo sapiens, UniProt Q04759); test: EGFP-PKC translocation in HeLa cells (PKCθ); type: cell-based; conditions: one hour, same concentrations
# T5 construct: host or cells: HeLa cells
# T5 sequence (Q04759 whole entry): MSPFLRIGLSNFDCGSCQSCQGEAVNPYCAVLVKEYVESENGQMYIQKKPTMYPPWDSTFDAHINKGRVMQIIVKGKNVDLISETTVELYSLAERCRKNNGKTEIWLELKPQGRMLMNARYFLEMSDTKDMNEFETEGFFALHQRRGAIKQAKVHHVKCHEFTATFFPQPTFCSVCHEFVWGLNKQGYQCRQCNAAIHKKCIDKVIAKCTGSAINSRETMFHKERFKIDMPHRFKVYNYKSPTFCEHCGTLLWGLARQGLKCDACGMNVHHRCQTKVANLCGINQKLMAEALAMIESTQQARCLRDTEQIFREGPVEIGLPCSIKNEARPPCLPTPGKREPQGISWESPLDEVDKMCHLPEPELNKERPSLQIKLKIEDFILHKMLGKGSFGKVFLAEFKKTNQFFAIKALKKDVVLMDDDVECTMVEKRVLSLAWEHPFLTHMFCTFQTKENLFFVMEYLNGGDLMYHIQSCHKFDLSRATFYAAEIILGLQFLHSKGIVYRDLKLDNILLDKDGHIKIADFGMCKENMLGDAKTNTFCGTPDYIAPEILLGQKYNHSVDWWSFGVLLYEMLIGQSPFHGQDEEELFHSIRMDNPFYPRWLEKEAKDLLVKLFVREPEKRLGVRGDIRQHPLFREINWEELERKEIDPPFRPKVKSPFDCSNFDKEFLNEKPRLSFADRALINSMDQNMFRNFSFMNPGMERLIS
# Method: as §1
# as §2, with “counted. Results are presented as an average and standard deviation of percentages of cells (Table 1).” for “counted.”
# adenovirus 5 = test: Adenovirus replication in human melanoma cells; type: cell-based; conditions: 2 days
# Excerpt: Human melanoma cells were infected with ten-fold dilutions of adenovirus 5 in culture, treated with dilutions of PEP005, PEP006, PEP008 and PEP010 and adenovirus replication determined 2 days later by immunhistochemical detection of virus-replicating cells.
# [2] = tested on: neonatal foreskin fibroblasts; test: Pretreated fibroblasts, killing by untreated leukocytes; type: cell-based, human; conditions: targets pretreated with 60 ng/mL for 20 hr, 100:1 effector:target
# Method: (§3) Leukocytes obtained by lysis of human peripheral blood were added to 5000 MM96L human melanoma cells or 7000 neonatal foreskin fibroblasts per microtitre well at effector: target ratios of 1000, 100 and 10:1. The target cells had been treated with 60 ng/mL PEP008 for 20 hr beforehand, and washed and the medium replaced before the leukocytes were added. After 48 hr incubation with the leukocytes the cultures were washed and labelled with [3H]-thymidine for 2 hr. […] Untreated leukocytes had no effect on cell survival.
# [3] = tested on: MM96L human melanoma cells; test: Leukocytes plus drug, killing of MM96L cells ([3H]-thymidine); type: cell-based; conditions: 60 ng/mL, 48 hr, 100:1 effector:target
# Method: (§4) Leukocytes obtained by lysis of human peripheral blood were added to 5000 MM96L human melanoma cells or 7000 neonatal foreskin fibroblasts per microtitre well at effector: target ratios of 1000, 100 and 10:1. Ing9 (60 ng/mL) was added and after 48 hr incubation the cultures were washed and labelled with [3H]-thymidine for 2 hr. […] Untreated leukocytes had no effect on cell survival.
# [4] = tested on: neonatal foreskin fibroblasts; test: Leukocytes plus drug, killing of fibroblasts ([3H]-thymidine); type: cell-based, human; conditions: 60 ng/mL, 48 hr, 100:1 effector:target
# Method: as §4
# [5] = tested on: MM96L human melanoma cells; test: Pretreated MM96L cells, killing by untreated leukocytes; type: cell-based; conditions: targets pretreated with 60 ng/mL for 20 hr, 100:1 effector:target
# Method: as §3
# [6] = tested on: Peripheral blood mononuclear cells (granulocytes, monocytes, lymphocytes); test: Respiratory burst, DCFH-DA H2O2 flow cytometry; type: cell-based; conditions: 15 min at 37° C.
# Method: Experiments were also carried out using 2′,7′-dichlorofluorescein diacetate (DCFH-DA) to measure the production of H2O2. (J P Robinson, Oxidative burst methods, in Handbook of Flow Cytometry Methods, Wiley-Liss Inc, pp 147-149, 1993). H2O2 oxidizes the non-fluorescent probe (DCFH-DA) to a fluorescent probe that can then be detected by a flow cytometer. Peripheral blood mononuclear cells (PBMC) were extracted from a donor blood sample by lysis of heparinized blood and used in a suspension of 1×10^6/mL of phosphate buffer, pH 7.3. The cells were then incubated with DCFH-DA (1 μL/mL of 20 mM stock) for 15 minutes to allow it to be taken up and trapped by hydrolysis with cellular esterases. The cells were then stimulated by test compounds for 15 min at 37° C. Controls included in the experiment were unloaded control (cells with no DCFH-DA) and loaded control (cells with DCFH-DA, but no stimulation). These were used to monitor the non-specific oxidation of unstimulated cells. The cells were then analyzed on the flow cytometer (excitation at 488 nm, emission at 525±20 nm), gating each sample for individual cell populations—granulocytes, monocytes and lymphocytes (Table 3).
# [7] = tested on: phorbol ester binding site of PKC; test: [3H]-phorbol dibutyrate competition assay, rat brain homogenate
# Method: A competition assay was performed to determine whether the diterpene esters of the instant invention bind to the phorbol ester binding site of PKC. […] This binding was not blocked by co-incubation with bisindolylmaleimide.
# rat brain PKC = test: PKC kinase activity, PepTag non-radioactive protein kinase assay; type: biochemical; conditions: PepTag gel; various dilutions of TPA; ether extract final dilution 1 in 5; crude sap and aqueous layer diluted 1/25
# Method: The kinase activity of rat brain PKC (Promega) was determined using the Peptag™ Non-Radioactive Protein Kinase Kit (Promega). Using agarose gel electrophoresis the technique visualises the opposing electrostatic charge of a fluorescently labeled peptide ([sequence]) compared to the phosphorylated version of the same peptide.
# The reaction mixture was separated by gel electrophoresis, showing migration of the unreacted substrate (a) to the anode (top), and the product (b), which is more negatively charged because of phosphorylation by PKC, moving towards the cathode (bottom).
molecule,measurement,setting,value
CC1=C[C@]23C(=O)[C@@H](C=C(CO)[C@@H](O)[C@]2(O)[C@H]1O)[C@H]1[C@@H](C[C@H]3C)C1(C)C [Ingenol],reduction of HIV-1 replication rate,HIV-strain pNL4-3,approximately 35%
"C/C=C(/C)C(=O)O[C@H]1C(C)=C[C@]23C(=O)[C@@H](C=C(CO)[C@@H](O)[C@]12O)[C@H]1[C@@H](C[C@H]3C)C1(C)C [PEP005, ingenol-3-angelate]",translocation of PKCα from cytoplasm to plasma membrane,PKCα,translocated from the cytoplasm to the plasma membrane
same,translocation of PKCγ from cytoplasm to plasma membrane,PKCγ,translocated from the cytoplasm to the plasma membrane
same,number of PKCβ transfected cells with Golgi-like fluorescence,PKCβ,decreases the number of cells
same,translocation of PKCβ from cytoplasm to plasma membrane,"PKCβ; TPA 100 ng/mL, bryostatin-1 5 pg/mL, PEP003 2.25 μg/mL (5 μM), PEP005 670 μg/mL (1.5 μM)",translocated from the cytoplasm to the plasma membrane
same,translocation of PKCζ,PKCζ,fail to induce translocation
same,phagocytosis of fluorescent latex spheres in PBMCs,[1],stimulate phagocytosis
same,translocation of PKCθ,PKCθ,does not induce any change
same,increase in adenovirus replication (number of stained cells),adenovirus 5; 67 ng/mL,344%
"C/C=C(/C)C(=O)O[C@H]1C(C)=C[C@]23C(=O)[C@H](C=C(C)[C@@H](O)[C@]12O)[C@H]1[C@@H](C[C@H]3C)C1(C)C [PEP006, 20-deoxy-ingenol-3-angelate]",phagocytosis of fluorescent latex spheres in PBMCs,[1],stimulate phagocytosis
same,increase in adenovirus replication (number of stained cells),adenovirus 5; 295 ng/mL,256%
"C/C=C(/C)C(=O)O[C@H]1C(C)=C[C@]23C(=O)[C@@H](C=C(COC(C)=O)[C@@H](O)[C@]12O)[C@H]1[C@@H](C[C@H]3C)C1(C)C [PEP008, 20-O-acetyl-ingenol-3-angelate]",survival of normal fibroblasts,[2],100%
same,phagocytosis of fluorescent latex spheres in PBMCs,[1],stimulate phagocytosis
same,increase in adenovirus replication (number of stained cells),adenovirus 5; 226 ng/mL,248%
same,survival of melanoma cells,[3],9%
same,survival of normal fibroblasts,[4],100%
same,survival of melanoma cells,[5],12%
CCC/C=C/C=C/C(=O)O[C@H]1/C(=C/C(=O)OC)C[C@H]2C[C@H]([C@@H](C)O)OC(=O)C[C@H](O)C[C@@H]3C[C@H](OC(C)=O)C(C)(C)[C@](O)(C[C@@H]4C/C(=C/C(=O)OC)C[C@H](/C=C/C(C)(C)[C@]1(O)O2)O4)O3 [bryostatin-1],translocation of PKCγ from cytoplasm to plasma membrane,PKCγ,not with bryostatin-1
same,number of PKCβ transfected cells with Golgi-like fluorescence,PKCβ,decreases the number of cells
same,"induction of respiratory burst (H2O2, DCFH-DA)",[6],All compounds except Bryostatin induced a respiratory burst
same,translocation of PKCζ,PKCζ,fail to induce translocation
same,translocation of PKCθ,PKCθ,translocated
bisindolylmaleimide,binds to the phorbol ester binding site of PKC,[7],does not
phosphatidyl serine,activation of PKC (FIG. 1),rat brain PKC,strong activation
